From ChEMBL document CHEMBL5537115, “New broad-spectrum and potent antibacterial agents with dual-targeting mechanism: Promoting FtsZ polymerization and disrupting bacterial membranes” (Eur J Med Chem, 2024)
Active and inactive are the calls of the source. The calls are words filed in the database; no cut-off is given here.

Columns and labels:
Staphylococcus aureus [1] = test: Antibacterial activity against erythromycin-susceptible Staphylococcus aureus ATCC25923 assessed as bacterial growth inhibition incubated for 20 hrs by CLSI based broth microdilution method; type: functional
Streptococcus pyogenes [2] = test: Antibacterial activity against erythromycin-resistant Streptococcus pyogenes 2 clinical isolate assessed as bacterial growth inhibition incubated for 20 hrs by CLSI based broth microdilution method; type: functional
Bacillus subtilis [3] = test: Antibacterial activity against penicillin-susceptible Bacillus subtilis ATCC9372 incubated for 18 to 24 hrs; type: functional; settings: time 18-24 hrs
Acinetobacter baumannii [4] = test: Antibacterial activity against Acinetobacter baumannii ATCC19606 assessed as bacterial growth inhibition incubated for 20 hrs by CLSI based broth microdilution method; type: functional
Staphylococcus aureus [5] = test: Induction of resistance development in Staphylococcus aureus ATCC25923 assessed as fold increase in MIC at 0.5 times MIC measured after 32 days by multi-passage resistance assay relative to control; type: functional; settings: time 32.0 day
Escherichia coli [6] = test: Antibacterial activity against wild-type Escherichia coli BW25113 assessed as bacterial growth inhibition incubated for 20 hrs by CLSI based broth microdilution method; type: functional
Bacillus subtilis [7] = test: Antibacterial activity against penicillin-susceptible Bacillus subtilis ATCC9372 assessed as bacterial growth inhibition incubated for 20 hrs by CLSI based broth microdilution method; type: functional
[8] = target: T1, Cell division protein FtsZ (Bacillus subtilis) (UniProt A5Z1V5); test: Induction of FtsZ polymerization in Bacillus subtilis assessed as bundling of FtsZ protofilaments at 10 ug/ml preincubated for 15 mins followed by GTP addition measured after 10 mins by TEM analysis; settings: dose 10.0 µg/ml, time 25.0 min
T1 sequence (whole entry): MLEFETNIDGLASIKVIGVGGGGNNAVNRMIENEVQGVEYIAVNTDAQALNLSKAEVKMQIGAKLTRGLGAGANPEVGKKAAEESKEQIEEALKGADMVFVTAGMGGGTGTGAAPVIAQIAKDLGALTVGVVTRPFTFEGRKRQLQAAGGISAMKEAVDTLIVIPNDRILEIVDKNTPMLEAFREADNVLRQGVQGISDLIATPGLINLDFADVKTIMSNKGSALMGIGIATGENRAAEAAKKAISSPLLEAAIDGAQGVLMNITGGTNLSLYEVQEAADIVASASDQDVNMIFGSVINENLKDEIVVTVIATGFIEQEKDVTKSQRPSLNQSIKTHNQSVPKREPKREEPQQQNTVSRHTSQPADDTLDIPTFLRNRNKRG

Enterococcus faecium [9] = test: Antibacterial activity against vancomycin-susceptible Enterococcus faecium ATCC19434 assessed as bacterial growth inhibition incubated for 20 hrs by CLSI based broth microdilution method; type: functional
Staphylococcus aureus [10] = test: Antibacterial activity against erythromycin-susceptible Staphylococcus aureus ATCC25923 incubated for 18 to 24 hrs; type: functional; settings: time 18-24 hrs
Staphylococcus aureus [11] = test: Inhibition of biofilm formation of Staphylococcus aureus ATCC25923 at 0.5 ug/ml incubated for 20 hrs by crystal violet staining based analysis relative to control; type: functional
Staphylococcus aureus [12] = test: Antibacterial activity against methicillin-resistant Staphylococcus aureus ATCC43300 assessed as bacterial growth inhibition incubated for 20 hrs by CLSI based broth microdilution method; type: functional
Acinetobacter baumannii [13] = test: Antibacterial activity against Acinetobacter baumannii ATCC19606 incubated for 18 to 24 hrs; type: functional; settings: time 18-24 hrs
Staphylococcus aureus [14] = test: Induction of morphological change in Staphylococcus aureus ATCC25923 assessed as loss of bacterial membrane integrity at 16 times MIC incubated for 2 hrs by TEM analysis; type: functional, organism-based
Staphylococcus aureus [15] = test: Selectivity ratio of MBC for erythromycin-susceptible Staphylococcus aureus ATCC25923 to MIC for erythromycin-susceptible Staphylococcus aureus ATCC25923; type: functional
[16] = target: T1, Cell division protein FtsZ (Bacillus subtilis); test: Induction of FtsZ polymerization in Bacillus subtilis preincubated for 10 mins followed by GTP addition measured upto 30 mins by absorbance based assay; settings: dose 2.5-10 µg/ml, time 40.0 min
Staphylococcus aureus [17] = test: Induction of morphological change in Staphylococcus aureus ATCC25923 assessed as leakage of cell contents at 16 times MIC incubated for 2 hrs by TEM analysis; type: functional, organism-based
Streptococcus pyogenes [18] = test: Antibacterial activity against erythromycin-susceptible Streptococcus pyogenes 1 assessed as bacterial growth inhibition incubated for 20 hrs by CLSI based broth microdilution method; type: functional
Bacillus subtilis [19] = test: Selectivity ratio of MBC for penicillin-susceptible Bacillus subtilis ATCC9372 to MIC for penicillin-susceptible Bacillus subtilis ATCC9372; type: functional
Enterococcus faecium [20] = test: Antibacterial activity against vancomycin-resistant Enterococcus faecium ATCC51559 assessed as bacterial growth inhibition incubated for 20 hrs by CLSI based broth microdilution method; type: functional
Bacillus subtilis [21] = test: Induction of morphological change in Bacillus subtilis ATCC9372 assessed as increase in cell length at 0.5 times MIC by phase contrast microscopy; type: functional, organism-based
Escherichia coli [22] = test: Antibacterial activity against penicillin-susceptible Escherichia coli ATCC25922 assessed as bacterial growth inhibition incubated for 20 hrs by CLSI based broth microdilution method; type: functional
Staphylococcus aureus [23] = test: Selectivity ratio of MBC for Staphylococcus aureus clinical isolate to MIC for Staphylococcus aureus clinical isolate; type: functional
Enterococcus faecalis [24] = test: Antibacterial activity against vancomycin-resistant Enterococcus faecalis ATCC51299 assessed as bacterial growth inhibition incubated for 20 hrs by CLSI based broth microdilution method; type: functional
Acinetobacter baumannii [25] = test: Selectivity ratio of MBC for Acinetobacter baumannii ATCC19606 to MIC for Acinetobacter baumannii ATCC19606; type: functional
[26] = Hemolytic activity in mouse erythrocytes at 128 ug/ml incubated for 1 hr by absorbance based assay; type: toxicity, cell-based, Erythrocyte; settings: dose 128 µg/ml, read-out: Activity
Staphylococcus aureus [27] = test: Disruption of inner membrane in Staphylococcus aureus ATCC25923 by PI staining based analysis; type: functional, organism-based; settings: time 12.0 min, TDE = time-dependent effect
Staphylococcus aureus [28] = test: Disruption of inner membrane in Staphylococcus aureus ATCC25923 measured after 12 mins by PI staining based analysis; type: functional, organism-based
Klebsiella pneumoniae = test: Antibacterial activity against Klebsiella pneumoniae ATCC BAA-1902 assessed as bacterial growth inhibition incubated for 20 hrs by CLSI based broth microdilution method; type: functional
Staphylococcus aureus [29] = test: Antibacterial activity against methicillin-resistant Staphylococcus aureus ATCC43300 incubated for 18 to 20 hrs; type: functional; settings: time 18-20 hrs
Bacillus pumilus = test: Antibacterial activity against penicillin-susceptible Bacillus pumilus CMCC63202 assessed as bacterial growth inhibition incubated for 20 hrs by CLSI based broth microdilution method; type: functional
[30] = test system: Staphylococcus epidermidis; test: Antibacterial activity against penicillin-resistant Staphylococcus epidermidis clinical isolate assessed as bacterial growth inhibition incubated for 20 hrs by CLSI based broth microdilution method; type: functional
Staphylococcus aureus [31] = test: Antibacterial activity against Staphylococcus aureus clinical isolate assessed as bacterial growth inhibition incubated for 20 hrs by CLSI based broth microdilution method; type: functional
Staphylococcus aureus [32] = test: Antibacterial activity against Staphylococcus aureus clinical isolate incubated for 18 to 24 hrs; type: functional; settings: time 18-24 hrs
[33] = target: T1, Cell division protein FtsZ (Bacillus subtilis); test: Induction of FtsZ polymerization in Bacillus subtilis at 2.5 to 10 ug/ml preincubated with compound followed by GTP addition by absorbance based assay; settings: dose 2.5-10 µg/ml, time 40.0 min, TDE = time-dependent effect
Staphylococcus aureus [34] = test: Antibacterial activity against penicillin-resistant Staphylococcus aureus ATCC31007 assessed as bacterial growth inhibition incubated for 20 hrs by CLSI based broth microdilution method; type: functional
Staphylococcus aureus [35] = test: Induction of membrane potential depolarization in Staphylococcus aureus ATCC25923 measured after 20 mins by diSC35 dye based spectroscopy; type: functional, organism-based
Enterococcus faecalis [36] = test: Antibacterial activity against vancomycin-susceptible Enterococcus faecalis ATCC29212 assessed as bacterial growth inhibition incubated for 20 hrs by CLSI based broth microdilution method; type: functional
Staphylococcus aureus [37] = test: Inhibition of biofilm formation of Staphylococcus aureus ATCC25923 incubated for 20 hrs by crystal violet staining based analysis; type: functional, organism-based
Staphylococcus aureus [38] = test: Selectivity ratio of MBC for methicillin-resistant Staphylococcus aureus ATCC43300 to MIC for methicillin-resistant Staphylococcus aureus ATCC43300; type: functional

Cc1ccccc1-c1c[n+](C)c(-c2ccc(C(C)(C)C)cc2)cc1/C=C/c1ccc(O)cc1.[I-]
MIC (Staphylococcus aureus [1]): 0.062 µg/mL | MIC (Streptococcus pyogenes [2]): 2 µg/mL | MBC (Bacillus subtilis [3]): 2 µg/mL | MIC (Acinetobacter baumannii [4]): 4 µg/mL | fold change (FC) (Staphylococcus aureus [5]): 2 | MIC (Escherichia coli [6]): > 64 µg/mL | MIC (Bacillus subtilis [7]): 0.5 µg/mL | Activity [8]: Active | MIC (Enterococcus faecium [9]): 2 µg/mL | MBC (Staphylococcus aureus [10]): 2 µg/mL | inhibition at 0.5 µg/mL (Staphylococcus aureus [11]): 39% | MIC (Staphylococcus aureus [12]): 0.125 µg/mL | MBC (Acinetobacter baumannii [13]): 16 µg/mL | Activity (Staphylococcus aureus [14]): Active | Ratio (Staphylococcus aureus [15]): 32 | Activity [16]: Dose-Dependent Effect | Activity (Staphylococcus aureus [17]): Active | MIC (Streptococcus pyogenes [18]): 1 µg/mL | Ratio (Bacillus subtilis [19]): 4 | MIC (Enterococcus faecium [20]): 2 µg/mL | Activity (Bacillus subtilis [21]): Active | MIC (Escherichia coli [22]): 32 µg/mL | Ratio (Staphylococcus aureus [23]): 8 | MIC (Enterococcus faecalis [24]): 2 µg/mL | Ratio (Acinetobacter baumannii [25]): 4 | hemolysis at 1 h, 128 ug/ml [26]: 7.59% | Activity (Staphylococcus aureus [27]): Tde | Activity (Staphylococcus aureus [28]): Dose-Dependent Effect | MIC (Klebsiella pneumoniae): > 64 µg/mL | MBC (Staphylococcus aureus [29]): 2 µg/mL | MIC (Bacillus pumilus): 1 µg/mL | MIC [30]: 2 µg/mL | MIC (Staphylococcus aureus [31]): 0.125 µg/mL | MBC (Staphylococcus aureus [32]): 4 µg/mL | Activity [33]: Tde | MIC (Staphylococcus aureus [34]): 1 µg/mL | Activity (Staphylococcus aureus [35]): Dose-Dependent Effect | MIC (Enterococcus faecalis [36]): 2 µg/mL | inhibition (Staphylococcus aureus [37]): Dose-Dependent Effect | Ratio (Staphylococcus aureus [38]): 16
